Reference: patent US11529358B2, “Treatment of conditions associated with myotonic dystrophy” (priority 2017, dated 2022)
Entries after “also recorded” stand apart in the source; their conditions may differ.

Legend:
DM subject [1] = experiment: Clinical treatment of hypersomnia and cognitive deficits in DM subjects; format: in vivo, human
[2] = molecular target: GABRG2S-containing receptors in HEK293T cells (Homo sapiens, UniProt P14867+P18507); experiment: Patch clamp electrophysiology with DM subject CSF in HEK293T cells; conditions: CSF from DM subject 2, with GABA; clarithromycin added
GABRG2S-containing receptors in HEK293T cells, sequence (P18507 40-467 isoform P18507-1 limits assumed): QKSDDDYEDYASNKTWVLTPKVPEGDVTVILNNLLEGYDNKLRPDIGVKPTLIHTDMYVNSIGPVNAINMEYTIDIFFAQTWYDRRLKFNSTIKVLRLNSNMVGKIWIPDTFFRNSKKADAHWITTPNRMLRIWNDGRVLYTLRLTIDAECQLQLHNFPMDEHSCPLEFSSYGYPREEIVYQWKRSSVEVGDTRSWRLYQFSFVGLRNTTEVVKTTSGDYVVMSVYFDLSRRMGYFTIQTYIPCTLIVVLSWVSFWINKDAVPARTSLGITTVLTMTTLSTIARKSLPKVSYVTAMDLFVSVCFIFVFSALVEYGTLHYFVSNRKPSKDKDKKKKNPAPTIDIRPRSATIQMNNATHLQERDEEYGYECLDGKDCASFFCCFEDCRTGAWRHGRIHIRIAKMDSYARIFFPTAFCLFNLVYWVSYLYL
GABRG2S-containing receptors in HEK293T cells, sequence (P14867 28-456): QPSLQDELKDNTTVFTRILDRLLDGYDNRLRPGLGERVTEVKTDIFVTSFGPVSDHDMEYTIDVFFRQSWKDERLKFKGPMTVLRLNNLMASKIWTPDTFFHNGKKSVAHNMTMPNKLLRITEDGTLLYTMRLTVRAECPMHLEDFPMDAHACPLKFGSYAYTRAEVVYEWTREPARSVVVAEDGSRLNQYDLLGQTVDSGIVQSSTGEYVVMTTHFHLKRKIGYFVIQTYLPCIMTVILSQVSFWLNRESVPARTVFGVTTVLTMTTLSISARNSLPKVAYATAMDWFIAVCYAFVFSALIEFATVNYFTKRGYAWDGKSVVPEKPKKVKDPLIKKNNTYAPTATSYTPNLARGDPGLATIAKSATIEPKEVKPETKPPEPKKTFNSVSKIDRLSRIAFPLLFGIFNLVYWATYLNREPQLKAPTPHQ
GABRG2S-containing receptors in HEK293T cells, sequence (P47870 25-512 partner limits assumed): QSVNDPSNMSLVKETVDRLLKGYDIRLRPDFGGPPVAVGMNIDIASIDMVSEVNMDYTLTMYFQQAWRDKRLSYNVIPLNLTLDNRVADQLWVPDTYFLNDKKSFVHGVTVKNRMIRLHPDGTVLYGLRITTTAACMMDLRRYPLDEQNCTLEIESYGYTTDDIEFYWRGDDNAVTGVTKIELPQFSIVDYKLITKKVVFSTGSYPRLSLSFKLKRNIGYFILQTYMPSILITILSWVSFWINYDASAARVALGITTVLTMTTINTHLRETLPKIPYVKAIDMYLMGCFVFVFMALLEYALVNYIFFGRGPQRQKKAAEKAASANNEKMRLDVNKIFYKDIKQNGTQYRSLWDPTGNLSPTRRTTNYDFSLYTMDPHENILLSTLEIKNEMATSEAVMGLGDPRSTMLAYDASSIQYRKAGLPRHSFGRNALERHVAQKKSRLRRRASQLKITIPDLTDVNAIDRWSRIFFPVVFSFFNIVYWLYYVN

[3] = system: MBNL2 knockout and DMSXL transgenic mouse models; conditions: MBNL2 knockout and DMSXL transgenic mice; Charizanis et al. 2012; cited from earlier work
gamma 2L deficient mice = conditions: Quinlan et al. 2000; cited from earlier work
[4] = system: benzodiazepine binding site of GABAA receptors; conditions: previous work, Rye et al. 2012; cited from earlier work
[5] = system: idiopathic hypersomnia (IH) subjects; conditions: previous work, Rye 2012; Trotti 2016; cited from earlier work
DM subject 1 [6] = experiment: Stanford sleepiness scale; conditions: intravenous flumazenil, 2 different doses incl. 2.0 mg, average of 3 assessments over one hour
DM subject 1 [7] = experiment: Ten-minute psychomotor vigilance task
DM subject [8] = experiment: Epworth Sleepiness Scale, self-reported
DM subject [9] = experiment: Multidimensional Fatigue Inventory, self-reported; format: in vivo, human; conditions: additional DM subject; ON treatment: flumazenil 12-18 mg sublingual plus 12 mg topical daily, or armodafinil 250 mg QAM
DM subject [10] = experiment: Fatigue severity scale, self-reported; format: in vivo, human; conditions: additional DM subject; ON treatment: flumazenil 12-18 mg sublingual plus 12 mg topical daily, or armodafinil 250 mg QAM
DM subject [11] = experiment: Sleep inertia questionnaire, self-reported; format: in vivo, human; conditions: additional DM subject; ON treatment: flumazenil 12-18 mg sublingual plus 12 mg topical daily, or armodafinil 250 mg QAM
DM subject [12] = experiment: Functional Outcomes of sleep, self-reported; format: in vivo, human; conditions: additional DM subject; ON treatment: flumazenil 12-18 mg sublingual plus 12 mg topical daily, or armodafinil 250 mg QAM
DM subject [13] = experiment: Hypersomnia Severity Index, self-reported; format: in vivo, human; conditions: additional DM subject; ON treatment: flumazenil 12-18 mg sublingual plus 12 mg topical daily, or armodafinil 250 mg QAM
DM subject [14] = experiment: Owl Lark questionnaire, self-reported; format: in vivo, human; conditions: additional DM subject; ON treatment: flumazenil 12-18 mg sublingual plus 12 mg topical daily, or armodafinil 250 mg QAM
DM subject [15] = experiment: Beck Depression Inventory, self-reported; format: in vivo, human; conditions: additional DM subject; ON treatment: flumazenil 12-18 mg sublingual plus 12 mg topical daily, or armodafinil 250 mg QAM
[16] = additional DM subject, ON treatment: flumazenil 12-18 mg sublingual plus 12 mg topical daily, or armodafinil 250 mg QAM

CC[C@H]1OC(=O)[C@H](C)[C@@H](O[C@H]2C[C@@](C)(OC)[C@@H](O)[C@H](C)O2)[C@H](C)[C@@H](O[C@@H]2O[C@H](C)C[C@H](N(C)C)[C@H]2O)[C@](C)(OC)C[C@@H](C)C(=O)[C@H](C)[C@@H](O)[C@]1(C)O [clarithromycin]
Oral clarithromycin treatment outcome (DM subject [1]; DM subject 1): discontinued use -
Oral clarithromycin treatment outcome (DM subject [1]; DM subject 2): clinical benefit; also recorded: efficacious
effect on endozepine-like activity of CSF [2]: reversed; also recorded: normalized

C1CCc2nnnn2CC1 [Pentylenetetrazole]
spontaneous seizure and death in response to PTZ [3]: increased frequency of spontaneous seizure and death

CCOC(=O)c1ncn2c1CN(C)C(=O)c1cc(F)ccc1-2 [flumazenil]
action of midazolam in gamma 2L deficient mice (gamma 2L deficient mice): reversed
endozepine-like molecule binding [4]: inhibits endozepine-like molecule binding
clinical benefit in idiopathic hypersomnia [5]: clinical benefit
self reported sleepiness on the Stanford sleepiness scale (DM subject 1 [6]): reduced sleepiness
time elapsed between visual stimulus and user input (DM subject 1 [7]; 2.0 mg intravenously administered flumazenil, versus before treatment): dramatic decrease in time elapsed
lapses in attention (reaction times >500 ms) (DM subject 1 [7]; intravenous flumazenil, 2 different doses incl. 2.0 mg): marked reduction in lapses in attention; also recorded: decreased
Epworth Sleepiness Scale (DM subject [8]; DM subject 4, ON flumazenil 12-18 mg sublingual plus 12 mg topical daily, 6 continuous weeks): 5
Epworth Sleepiness Scale (DM subject [8]; [16]): 7

NC(=O)C[S@@+]([O-])C(c1ccccc1)c1ccccc1 [Armodafmil, armodafinil]
General Fatigue (5-20) (DM subject [9]): 15
Mental Fatigue (5-20) (DM subject [9]): 11
Physical Fatigue (5-20) (DM subject [9]): 6
Reduced Activity (5-20) (DM subject [9]): 7
Reduced Motivation (5-20) (DM subject [9]): 5
Fatigue severity scale (7-63) (DM subject [10]): 47
Sleep inertia questionnaire (DM subject [11]): 14.683
Functional Outcomes of sleep (5-20) (DM subject [12]): 16.875
Hypersomnia Severity Index (0-36) (DM subject [13]): 25
Owl Lark (DM subject [14]): 36
Beck Depression Inventory (0-39) (DM subject [15]): 3
Epworth Sleepiness Scale (DM subject [8]; [16]): 8
